Test results: ChEMBL document CHEMBL1131957, “Structure-activity relationship of a series of diaminoalkyl substituted benzimidazole as neuropeptide Y Y1 receptor antagonists” (Bioorg Med Chem Lett, 1999)

Key:
[1] = target: T1, Neuropeptide Y receptor type 1 (Homo sapiens, UniProt P25929); assay: Ability to displace [125I]-peptide YY binding to cloned human Neuropeptide Y receptor type 1 expressed in AV-12 cells; type: cell-based, AV12
T1 sequence (P25929 whole entry): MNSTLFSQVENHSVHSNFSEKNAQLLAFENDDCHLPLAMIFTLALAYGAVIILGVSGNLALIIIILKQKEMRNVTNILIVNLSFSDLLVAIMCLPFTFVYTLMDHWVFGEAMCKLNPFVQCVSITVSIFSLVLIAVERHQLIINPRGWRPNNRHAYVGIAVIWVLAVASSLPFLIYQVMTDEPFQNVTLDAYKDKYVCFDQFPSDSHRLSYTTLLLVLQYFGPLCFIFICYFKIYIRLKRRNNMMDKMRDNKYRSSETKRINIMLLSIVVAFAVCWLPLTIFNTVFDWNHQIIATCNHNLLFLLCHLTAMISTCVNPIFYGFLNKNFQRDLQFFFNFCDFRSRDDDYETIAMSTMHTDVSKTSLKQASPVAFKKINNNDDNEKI

SK-N-MC = assay: Ability to antagonize 1 nM NPY''s inhibition of forskolin-stimulated cyclic AMP accumulation in SK-N-MC cells; type: functional, cell-based, Homo sapiens
[2] = target: Neuropeptide Y receptor type 4 (Homo sapiens) (UniProt P50391); assay: Ability to displace [125I]-peptide YY binding to cloned human Neuropeptide Y receptor type 4 expressed in CHO cells at a concentration of 1 uM; type: cell-based
Chain of Neuropeptide Y receptor type 4 (Homo sapiens) (P50391 whole entry): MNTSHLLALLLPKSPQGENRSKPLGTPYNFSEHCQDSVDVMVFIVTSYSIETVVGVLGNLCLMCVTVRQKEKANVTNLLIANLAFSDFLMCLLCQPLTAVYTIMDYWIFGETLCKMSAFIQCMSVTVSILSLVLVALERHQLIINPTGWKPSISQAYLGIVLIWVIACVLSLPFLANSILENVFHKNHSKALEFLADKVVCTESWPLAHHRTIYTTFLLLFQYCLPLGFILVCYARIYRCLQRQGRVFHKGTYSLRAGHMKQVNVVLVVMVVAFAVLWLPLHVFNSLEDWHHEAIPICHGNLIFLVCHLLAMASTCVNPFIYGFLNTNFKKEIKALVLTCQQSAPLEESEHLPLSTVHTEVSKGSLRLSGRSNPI

[3] = target: T2, Neuropeptide Y receptor type 5 (Homo sapiens) (UniProt Q15761); assay: Ability to displace [125I]-peptide YY binding to cloned human Neuropeptide Y receptor type 5 expressed in CHO cells at a concentration of 1 uM; type: cell-based
T2 sequence (whole entry): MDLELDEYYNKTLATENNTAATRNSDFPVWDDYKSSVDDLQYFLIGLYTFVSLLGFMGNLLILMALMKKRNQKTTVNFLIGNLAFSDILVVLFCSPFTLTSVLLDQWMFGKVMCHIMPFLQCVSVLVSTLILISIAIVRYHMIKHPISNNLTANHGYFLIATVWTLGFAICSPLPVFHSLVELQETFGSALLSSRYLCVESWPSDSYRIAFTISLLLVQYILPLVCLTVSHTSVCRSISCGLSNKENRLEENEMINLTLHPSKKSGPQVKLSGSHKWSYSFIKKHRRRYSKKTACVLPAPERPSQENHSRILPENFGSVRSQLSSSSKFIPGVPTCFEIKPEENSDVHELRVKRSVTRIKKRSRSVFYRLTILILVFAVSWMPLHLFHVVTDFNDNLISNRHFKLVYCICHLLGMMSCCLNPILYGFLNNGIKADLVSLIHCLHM

[4] = target: T3, Neuropeptide Y receptor type 2 (Homo sapiens) (UniProt P49146); assay: Ability to displace [125I]-peptide YY binding to cloned human Neuropeptide Y receptor type 2 expressed in CHO cells at a concentration of 1 uM; type: cell-based
T3 sequence (whole entry): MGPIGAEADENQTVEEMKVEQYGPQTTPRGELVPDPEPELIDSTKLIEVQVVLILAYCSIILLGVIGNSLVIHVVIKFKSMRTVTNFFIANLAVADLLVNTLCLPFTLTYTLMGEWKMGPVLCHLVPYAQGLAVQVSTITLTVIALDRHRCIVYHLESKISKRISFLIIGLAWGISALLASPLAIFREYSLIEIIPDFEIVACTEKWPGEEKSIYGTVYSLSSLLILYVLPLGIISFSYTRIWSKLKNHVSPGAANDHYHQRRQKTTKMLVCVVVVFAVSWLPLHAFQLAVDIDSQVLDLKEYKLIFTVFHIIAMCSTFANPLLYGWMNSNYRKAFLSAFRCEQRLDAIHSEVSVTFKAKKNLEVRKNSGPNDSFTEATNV

SMILES	Ki [1]	also measured
CC(C)CCN1CCC(CCCn2c(COc3ccccc3)nc3c(OCCCN4CCCCC4)cccc32)CC1	0.29 nM	–
c1ccc(OCc2nc3c(OCCCN4CCCCC4)cccc3n2CCCC2CCN(CC3CCCCC3)CC2)cc1	0.393 nM	–
CC(C)N1CCC(CCCn2c(COc3ccccc3)nc3c(OCCCN4CCCCC4)cccc32)CC1	1.61 nM	–
O=C(CN1CCC(N2CCCCC2)CC1)c1c(COc2ccc(Cl)cc2)n(CCCC2CCCNC2)c2ccccc12 (stereo not given)	0.75 nM	–
C=CCCN1CCC(CCCn2c(COc3ccccc3)nc3c(OCCCN4CCCCC4)cccc32)CC1	0.707 nM	–
CC(C)CN1CCC(CCCn2c(COc3ccccc3)nc3c(OCCCN4CCCCC4)cccc32)CC1	0.829 nM	–
C(=C/c1ccccc1)/CN1CCC(CCCn2c(COc3ccccc3)nc3c(OCCCN4CCCCC4)cccc32)CC1	0.183 nM	–
c1ccc(OCc2nc3c(OCCCN4CCCCC4)cccc3n2CCCC2CCNCC2)cc1	4.5 nM	–
Oc1ccc(CCN2CCC(CCCn3c(COc4ccccc4)nc4c(OCCCN5CCCCC5)cccc43)CC2)cc1	0.313 nM	–
c1ccc(CCCN2CCC(CCCn3c(COc4ccccc4)nc4c(OCCCN5CCCCC5)cccc43)CC2)cc1	0.361 nM	Ki (SK-N-MC): 3.4 nM
O=C(CCCN1CCC(CCCn2c(COc3ccccc3)nc3c(OCCCN4CCCCC4)cccc32)CC1)c1ccccc1	0.132 nM	–
c1ccc(OCc2nc3c(OCCCN4CCCCC4)cccc3n2CCCC2CCN(CCCN3CCCCC3)CC2)cc1	0.106 nM	Ki (SK-N-MC): 0.564 nM
O=C(CCN1CCC(CCCn2c(COc3ccccc3)nc3c(OCCCN4CCCCC4)cccc32)CC1)c1ccccc1	0.112 nM	–
c1ccc(CCN2CCC(CCCn3c(COc4ccccc4)nc4c(OCCCN5CCCCC5)cccc43)CC2)cc1	0.191 nM	–
CN1CCC(CCCn2c(COc3ccccc3)nc3c(OCCCN4CCCCC4)cccc32)CC1	1.62 nM	–
c1ccc(OCc2nc3c(OCCCN4CCCCC4)cccc3n2CCCC2CCN(CCC3CCCCC3)CC2)cc1	0.285 nM	Ki (SK-N-MC): 5.2 nM
C=CCN1CCC(CCCn2c(COc3ccccc3)nc3c(OCCCN4CCCCC4)cccc32)CC1	1.63 nM	–
Ic1ccc(CCN2CCC(CCCn3c(COc4ccccc4)nc4c(OCCCN5CCCCC5)cccc43)CC2)cc1	0.052 nM	inhibition [2]: < 50%; Ki (SK-N-MC): 6 nM; inhibition [3]: < 50%; inhibition [4]: < 50%
